PMC5125662, “The Open Form Inducer Approach for Structure-Based Drug Design” (PLoS ONE, 2016)
Where two headings read alike, the source gives them in different places.

Tests used:
[1] = parameters: method as in earlier work; settings: cited from earlier work
TcDHODH = biological target: T1, TcDHODH (Trypanosoma cruzi, UniProt Q4D3W2); assay: biochemical; settings: for IC50: 500 μM L-dihydroorotate, 2 mM fumarate, pH 8.0; for Ki: read-out: TcDHODH Ki^app
T1 construct: made in house
T1 sequence (Q4D3W2 1-314): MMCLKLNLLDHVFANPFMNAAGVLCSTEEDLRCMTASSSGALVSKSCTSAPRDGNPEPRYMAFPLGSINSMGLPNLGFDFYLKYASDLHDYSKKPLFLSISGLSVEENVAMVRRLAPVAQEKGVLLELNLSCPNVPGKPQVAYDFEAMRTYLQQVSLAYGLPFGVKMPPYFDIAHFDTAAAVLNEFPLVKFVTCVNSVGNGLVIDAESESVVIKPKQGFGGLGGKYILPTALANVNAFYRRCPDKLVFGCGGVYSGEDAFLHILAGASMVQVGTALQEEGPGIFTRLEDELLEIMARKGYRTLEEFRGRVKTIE

| IC50 (TcDHODH) | Ki (TcDHODH) | Ki (TcDHODH; calculated from IC50 by Cheng-Prusoff equation, Km for dihydroorotate […]) | Structure (SMILES) | pKa [1] |
| --- | --- | --- | --- | --- |
|  |  |  | O=C(O)c1ccc2ccccc2c1 [2-naphthoic acid] | 4.17 |
| ≥ 400 µM | > 19.7 µM |  | CC(C)(C)CCc1c(C(=O)O)[nH]c(=O)[nH]c1=O [Compound 1] |  |
| 112 ± 21 µM |  | 5.51 µM | O=C(O)c1cc(=O)[nH]c(=O)[nH]1 [ORO, orotate, reference compound] |  |
